# Target: ATM (Homo sapiens (Human), UniProt Q13315)
# Assay: biochemical
# Type: biochemical
# Conditions: not given
# From the text: Assay a): ATM Biochemical Potency
# Data was collected by Caliper.
# Sequence of ATM (Q13315 whole entry, looked up): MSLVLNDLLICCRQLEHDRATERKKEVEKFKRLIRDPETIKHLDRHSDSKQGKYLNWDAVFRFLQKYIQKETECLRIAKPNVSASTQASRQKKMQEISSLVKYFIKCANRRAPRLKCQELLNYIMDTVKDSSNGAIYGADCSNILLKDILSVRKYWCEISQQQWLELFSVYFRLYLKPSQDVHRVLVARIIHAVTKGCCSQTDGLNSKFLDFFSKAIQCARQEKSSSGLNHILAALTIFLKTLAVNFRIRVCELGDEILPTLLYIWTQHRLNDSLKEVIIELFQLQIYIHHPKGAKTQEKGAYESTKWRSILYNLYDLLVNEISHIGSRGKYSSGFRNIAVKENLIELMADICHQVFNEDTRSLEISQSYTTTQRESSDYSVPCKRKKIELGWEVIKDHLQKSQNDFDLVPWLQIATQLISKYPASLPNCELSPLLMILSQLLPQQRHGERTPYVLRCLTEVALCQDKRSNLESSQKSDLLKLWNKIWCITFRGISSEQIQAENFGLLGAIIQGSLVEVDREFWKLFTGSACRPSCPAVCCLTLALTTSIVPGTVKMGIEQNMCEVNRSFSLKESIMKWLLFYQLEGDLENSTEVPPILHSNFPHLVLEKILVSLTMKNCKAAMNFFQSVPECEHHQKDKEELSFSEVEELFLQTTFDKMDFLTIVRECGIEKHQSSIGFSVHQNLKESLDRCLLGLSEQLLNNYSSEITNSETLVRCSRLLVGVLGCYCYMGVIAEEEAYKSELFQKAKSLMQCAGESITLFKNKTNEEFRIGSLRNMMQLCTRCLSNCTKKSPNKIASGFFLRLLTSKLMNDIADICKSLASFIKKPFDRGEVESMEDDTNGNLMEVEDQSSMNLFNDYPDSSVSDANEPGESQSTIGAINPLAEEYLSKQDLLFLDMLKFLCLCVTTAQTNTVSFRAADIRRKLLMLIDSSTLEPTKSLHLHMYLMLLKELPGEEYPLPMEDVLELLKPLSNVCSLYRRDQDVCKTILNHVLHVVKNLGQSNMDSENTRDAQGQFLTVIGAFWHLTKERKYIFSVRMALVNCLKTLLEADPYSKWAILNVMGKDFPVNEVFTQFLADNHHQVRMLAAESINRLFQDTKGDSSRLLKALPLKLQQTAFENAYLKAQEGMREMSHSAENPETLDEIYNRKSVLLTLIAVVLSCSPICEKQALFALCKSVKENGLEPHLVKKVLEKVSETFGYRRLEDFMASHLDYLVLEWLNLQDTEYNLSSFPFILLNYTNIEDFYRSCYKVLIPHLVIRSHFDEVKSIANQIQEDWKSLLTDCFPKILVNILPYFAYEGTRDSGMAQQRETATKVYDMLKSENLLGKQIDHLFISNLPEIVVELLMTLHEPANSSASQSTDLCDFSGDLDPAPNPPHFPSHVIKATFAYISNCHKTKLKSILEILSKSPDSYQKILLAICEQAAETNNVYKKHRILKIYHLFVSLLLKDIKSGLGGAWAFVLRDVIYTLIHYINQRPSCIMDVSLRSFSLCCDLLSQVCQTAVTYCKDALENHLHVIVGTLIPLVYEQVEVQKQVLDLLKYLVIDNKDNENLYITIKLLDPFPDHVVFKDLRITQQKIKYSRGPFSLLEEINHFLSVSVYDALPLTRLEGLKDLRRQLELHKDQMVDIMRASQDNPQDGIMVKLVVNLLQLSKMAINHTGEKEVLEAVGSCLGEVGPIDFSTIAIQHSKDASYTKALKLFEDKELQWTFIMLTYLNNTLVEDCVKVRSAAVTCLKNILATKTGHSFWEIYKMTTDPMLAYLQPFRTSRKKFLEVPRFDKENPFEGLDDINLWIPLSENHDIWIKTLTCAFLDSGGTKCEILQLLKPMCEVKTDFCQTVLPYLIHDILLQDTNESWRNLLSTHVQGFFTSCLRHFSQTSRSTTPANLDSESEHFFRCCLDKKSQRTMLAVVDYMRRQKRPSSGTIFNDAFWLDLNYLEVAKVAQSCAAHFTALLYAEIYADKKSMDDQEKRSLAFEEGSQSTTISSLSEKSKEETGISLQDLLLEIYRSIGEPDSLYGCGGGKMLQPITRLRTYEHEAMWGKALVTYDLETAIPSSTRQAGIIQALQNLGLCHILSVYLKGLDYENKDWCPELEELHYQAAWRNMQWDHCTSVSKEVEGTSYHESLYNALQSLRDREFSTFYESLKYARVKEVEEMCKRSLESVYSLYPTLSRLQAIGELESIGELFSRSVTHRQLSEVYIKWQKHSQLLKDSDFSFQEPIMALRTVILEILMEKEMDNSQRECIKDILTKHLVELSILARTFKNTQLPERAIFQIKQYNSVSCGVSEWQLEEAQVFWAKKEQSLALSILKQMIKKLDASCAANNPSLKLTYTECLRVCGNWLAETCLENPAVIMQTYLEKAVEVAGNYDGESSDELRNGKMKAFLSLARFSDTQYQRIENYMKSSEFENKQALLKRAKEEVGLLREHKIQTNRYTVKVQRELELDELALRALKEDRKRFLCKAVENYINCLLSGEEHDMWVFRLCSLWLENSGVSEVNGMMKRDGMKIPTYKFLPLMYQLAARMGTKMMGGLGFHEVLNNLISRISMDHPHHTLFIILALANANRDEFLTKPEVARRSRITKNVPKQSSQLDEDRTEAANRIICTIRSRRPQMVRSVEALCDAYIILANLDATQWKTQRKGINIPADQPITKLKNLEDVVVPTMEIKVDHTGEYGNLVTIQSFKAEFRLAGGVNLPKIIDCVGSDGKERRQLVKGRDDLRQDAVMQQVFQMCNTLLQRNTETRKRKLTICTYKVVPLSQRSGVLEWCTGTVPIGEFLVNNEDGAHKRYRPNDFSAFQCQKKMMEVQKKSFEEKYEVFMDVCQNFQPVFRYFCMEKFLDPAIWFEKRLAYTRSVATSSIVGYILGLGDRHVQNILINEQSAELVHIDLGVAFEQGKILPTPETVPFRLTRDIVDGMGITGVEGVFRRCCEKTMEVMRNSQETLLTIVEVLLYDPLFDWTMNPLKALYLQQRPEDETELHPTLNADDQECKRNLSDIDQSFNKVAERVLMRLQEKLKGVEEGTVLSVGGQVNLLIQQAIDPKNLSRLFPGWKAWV
row,Structure (SMILES),IC50
1,"C[C@@H](OCCN1CCC2(COC2)C1)c1ccc(-c2ccc3nnc4c(c3c2)n(C2CCOCC2)c(=O)n4C)cn1 [Example 116, (R)-8-(6-(1-(2-(2-oxa-6-azaspiro[3.4]octan-6-yl)ethoxy)ethyl)pyridin-3-yl)-3-methyl-1-(tetrahydro-2H-pyran-4-yl)-1H-imidazo[4,5-c]cinnolin-2(3H)-one]",2.9 nM
2,"CO[C@H]1C[C@H](n2c(=O)n(C)c3nnc4ccc(-c5ccc(COCCN6CCC7(CC7)C6)nc5)cc4c32)C1 [Example 159, 8-(6-((2-(5-azaspiro[2.4]heptan-5-yl)ethoxy)methyl)pyridin-3-yl)-1-(trans-3-methoxycyclobutyl)-3-methyl-1H-imidazo[4,5-c]cinnolin-2(3H)-one]",20.6 nM

# Same assay, conditions: read-out: ATM IC50
row,Structure (SMILES),IC50
1,"COC[C@@H]1CCN(CCO[C@H](C)c2ccc(-c3ccc4nnc5c(c4c3)n(C3CCOCC3)c(=O)n5C)cn2)C1 [Example 119, 8-(6-((R)-1-(2-((R)-3-(methoxymethyl)pyrrolidin-1-yl)ethoxy)ethyl)pyridin-3-yl)-3-methyl-1-(tetrahydro-2H-pyran-4-yl)-1H-imidazo[4,5-c]cinnolin-2(3H)-one]",2.4 nM
2,"C[C@@H](OCCN1CCCCC1)c1ccc(-c2ccc3nnc4c(c3c2)n(C2CCOCC2)c(=O)n4C)cn1 [Example 120, (R)-3-methyl-8-(6-(1-(2-(piperidin-1-yl)ethoxy)ethyl)pyridin-3-yl)-1-(tetrahydro-2H-pyran-4-yl)-1H-imidazo[4,5-c]cinnolin-2(3H)-one]",11 nM
3,"C[C@@H](OCCN1CCCC1)c1ccc(-c2ccc3nnc4c(c3c2)n(C2CCOCC2)c(=O)n4C)cn1 [Example 121, (R)-3-methyl-8-(6-(1-(2-(pyrrolidin-1-yl)ethoxy)ethyl)pyridin-3-yl)-1-(tetrahydro-2H-pyran-4-yl)-1H-imidazo[4,5-c]cinnolin-2(3H)-one]",13 nM
4,"C[C@@H](OCCN1CC[C@@H](OC2CC2)C1)c1ccc(-c2ccc3nnc4c(c3c2)n(C2CCOCC2)c(=O)n4C)cn1 [Example 122, 8-(6-((R)-1-(2-((R)-3-cyclopropoxypyrrolidin-1-yl)ethoxy)ethyl)pyridin-3-yl)-3-methyl-1-(tetrahydro-2H-pyran-4-yl)-1H-imidazo[4,5-c]cinnolin-2(3H)-one]",4.3 nM
5,"C[C@@H]1CCN(CCO[C@H](C)c2ccc(-c3ccc4nnc5c(c4c3)n(C3CCOCC3)c(=O)n5C)cn2)C1 [Example 123, 3-methyl-8-(6-((R)-1-(2-((R)-3-methylpyrrolidin-1-y)ethoxy)ethyl)pyridin-3-yl)-1-(tetrahydro-2H-pyran-4-yl)-1H-imidazo[4,5-c]cinnolin-2(3H)-one]",16 nM
6,"C[C@@H](OCCN1CCC2(CCC2)CC1)c1ccc(-c2ccc3nnc4c(c3c2)n(C2CCOCC2)c(=O)n4C)cn1 [Example 124, (R)-8-(6-(1-(2-(7-azaspiro[3.5]nonan-7-yl)ethoxy)ethyl)pyridin-3-yl)-3-methyl-1-(tetrahydro-2H-pyran-4-yl)-1H-imidazo[4,5-c]cinnolin-2(3H)-one]",1.1 nM
7,"C[C@@H](OCCN1CCC2(CCO2)CC1)c1ccc(-c2ccc3nnc4c(c3c2)n(C2CCOCC2)c(=O)n4C)cn1 [Example 125, (R)-8-(6-(1-(2-(1-oxa-7-azaspiro[3.5]nonan-7-yl)ethoxy)ethyl)pyridin-3-yl)-3-methyl-1-(tetrahydro-2H-pyran-4-yl)-1H-imidazo[4,5-c]cinnolin-2(3H)-one]",6.3 nM
8,"C[C@H]1CCN(CCO[C@H](C)c2ccc(-c3ccc4nnc5c(c4c3)n(C3CCOCC3)c(=O)n5C)cn2)C1 [Example 126, 3-methyl-8-(6-((R)-1-(2-((S)-3-methylpyrrolidin-1-yl)ethoxy)ethyl)pyridin-3-yl)-1-(tetrahydro-2H-pyran-4-yl)-1H-imidazo[4,5-c]cinnolin-2(3H)-one]",20 nM
9,"C[C@@H](OCCN1CC2(COC2)C1)c1ccc(-c2ccc3nnc4c(c3c2)n(C2CCOCC2)c(=O)n4C)cn1 [Example 127, (R)-8-(6-(1-(2-(2-oxa-6-azaspiro[3.3]heptan-6-yl)ethoxy)ethyl)pyridin-3-yl)-3-methyl-1-(tetrahydro-2H-pyran-4-yl)-1H-imidazo[4,5-c]cinnolin-2(3H)-one]",13 nM
10,"C[C@@H](OCCN1CCC(C2COC2)CC1)c1ccc(-c2ccc3nnc4c(c3c2)n(C2CCOCC2)c(=O)n4C)cn1 [Example 128, (R)-3-methyl-8-(6-(1-(2-(4-(oxetan-3-yl)piperidin-1-yl)ethoxy)ethyl)pyridin-3-yl)-1-(tetrahydro-2H-pyran-4-yl)-1H-imidazo[4,5-c]cinnolin-2(3H)-one]",4.6 nM
11,"C[C@@H](OCCN1CCC(C)(C#N)C1)c1ccc(-c2ccc3nnc4c(c3c2)n(C2CCOCC2)c(=O)n4C)cn1 (stereo partly drawn) [Example 130, 3-methyl-1-(2-((R)-1-(5-(3-methyl-2-oxo-1-(tetrahydro-2H-pyran-4-yl)-2,3-dihydro-1H-imidazo[4.5-c]cinnolin-8-yl)pyridin-2-yl)ethoxy)ethyl) pyrrolidine-3-carbonitrile]",26 nM
12,"CC(C)n1c(=O)n(C)c2nnc3cc(F)c(-c4ccc(COCCN5CCC(C)(C)C5)nc4)cc3c21 [Example 132, 8-(6-((2-(3,3-dimethylpyrrolidin-1-yl)ethoxy)methyl)pyridin-3-yl)-7-fluoro-1-isopropyl-3-methyl-1H-imidazo[4,5-c]cinnolin-2(3H)-one]",22 nM
13,"CC(C)n1c(=O)n(C)c2nnc3cc(F)c(-c4ccc([C@@H](C)OCCN5CCC(F)CC5)nc4)cc3c21 [Example 136, (R)-7-fluoro-8-(6-(1-(2-(4-fluoropiperidin-1-yl)ethoxy)ethyl)pyridin-3-yl)-1-isopropyl-3-methyl-1,3-dihydro-2H-imidazo[4,5-c]cinnolin-2-one]",10 nM
14,"CO[C@H]1CCN(CCO[C@H](C)c2ccc(-c3cc4c(cc3F)nnc3c4n(C(C)C)c(=O)n3C)cn2)C1 [Example 138, 7-fluoro-1-isopropyl-8-(6-((R)-1-(2-((S)-3-methoxypyrrolidin-1-yl)ethoxy)ethyl)pyridin-3-yl)-3-methyl-1H-imidazo[4,5-c]cinnolin-2(3H)-one]",14 nM
15,"CC(C)n1c(=O)n(C)c2nnc3cc(F)c(-c4ccc([C@@H](C)OCCN5CCC(C)(C)CC5)nc4)cc3c21 [Example 139, (R)-8-(6-(1-(2-(4,4-dimethylpiperidin-1-yl)ethoxy)ethyl)pyridin-3-yl)-7-fluoro-1-isopropyl-3-methyl-1H-imidazo[4,5-c]cinnolin-2(3H)-one]",2.8 nM
16,"CC(C)n1c(=O)n(C)c2nnc3cc(F)c(-c4ccc([C@@H](C)OCCN5CCC(OC(F)(F)F)C5)nc4)cc3c21 (stereo partly drawn) [Example 141, 7-fluoro-1-isopropyl-3-methyl-8-(6-((1R)-1-(2-(3-(trifluoromethoxy)pyrrolidin-1-yl)ethoxy)ethyl)pyridin-3-yl)-1H-imidazo[4,5-c]cinnolin-2(3H)-one]",6.3 nM
17,"CC(C)n1c(=O)n(C)c2nnc3cc(F)c(-c4ccc([C@@H](C)OCCN5CC6CC6C5)nc4)cc3c21 (stereo partly drawn) [Example 143, 8-(6-((1R)-1-(2-(3-azabicyclo[3.1.0]hexan-3-yl)ethoxy)ethyl)pyridin-3-yl)-7-fluoro-1-isopropyl-3-methyl-1H-imidazo[4,5-c]cinnolin-2(3H)-one]",11 nM
18,"CC(C)n1c(=O)n(C)c2nnc3cc(F)c(-c4ccc([C@@H](C)OCCN5CCC(C)(C#N)C5)nc4)cc3c21 (stereo partly drawn) [Example 147, 1-(2-((R)-1-(5-(7-fluoro-1-isopropyl-3-methyl-2-oxo-2,3-dihydro-1H-imidazo[4,5-c]cinnolin-8-yl)pyridin-2-yl)ethoxy)ethyl)-3-methylpyrrolidine-3-carbonitrile]",23 nM
19,"C[C@@H](OCCN1CCC(C)(C)CC1)c1ccc(-c2cc3c(cc2F)nnc2c3n(C3CCOCC3)c(=O)n2C)cn1 [Example 149, (R)-8-(6-(1-(2-(4,4-dimethylpiperidin-1-yl)ethoxy)ethyl)pyridin-3-yl)-7-fluoro-3-methyl-1-(tetrahydro-2H-pyran-4-yl)-1H-imidazo[4,5-c]cinnolin-2(3H)-one]",15 nM
20,"C[C@@H](OCCN1CCC2(CC1)CC2)c1ccc(-c2cc3c(cc2F)nnc2c3n(C3CCOCC3)c(=O)n2C)cn1 [Example 154, (R)-8-(6-(1-(2-(6-azaspiro[2.5]octan-6-yl)ethoxy)ethyl)pyridin-3-yl)-7-fluoro-3-methyl-1-(tetrahydro-2H-pyran-4-yl)-1H-imidazo[4,5-c]cinnolin-2(3H)-one]",3.6 nM
21,"C[C@@H](OCCN1CC[C@@H](OC(F)F)C1)c1ccc(-c2cc3c(cc2F)nnc2c3n(C3CCOCC3)c(=O)n2C)cn1 [Example 155, 8-(6-((R)-1-(2-((R)-3-(difluoromethoxy)pyrrolidin-1-yl)ethoxy)ethyl)pyridin-3-yl)-7-fluoro-3-methyl-1-(tetrahydro-2H-pyran-4-yl)-1H-imidazo[4,5-c]cinnolin-2(3H)-one]",11 nM
22,"C[C@@H](OCCN1CCC2(CCC2)CC1)c1ccc(-c2cc3c(cc2F)nnc2c3n(C3CCOCC3)c(=O)n2C)cn1 [Example 156, (R)-8-(6-(1-(2-(7-azaspiro[3.5]nonan-7-yl)ethoxy)ethyl)pyridin-3-yl)-7-fluoro-3-methyl-1-(tetrahydro-2H-pyran-4-yl)-1H-imidazo[4,5-c]cinnolin-2(3H)-one]",6 nM
23,"CO[C@H]1C[C@H](n2c(=O)n(C)c3nnc4ccc(-c5ccc([C@@H](C)OCCN6CCC7(CC7)C6)nc5)cc4c32)C1 [Example 161, 8-(6-((R)-1-(2-(5-azaspiro[2.4]heptan-5-yl)ethoxy)ethyl)pyridin-3-yl)-1-(trans-3-methoxycyclobutyl)-3-methyl-1H-imidazo[4,5-c]cinnolin-2(3H)-one]",3.4 nM
24,"CO[C@@H]1CCN(CCO[C@H](C)c2ccc(-c3ccc4nnc5c(c4c3)n([C@H]3C[C@H](OC)C3)c(=O)n5C)cn2)C1 [Example 163, 1-(trans-3-methoxycyclobutyl)-8-(6-((R)-1-(2-((R)-3-methoxypyrrolidin-1-yl)ethoxy)ethyl)pyridin-3-yl)-3-methyl-1H-imidazo[4,5-c]cinnolin-2(3H)-one]",7.9 nM
25,"CO[C@H]1C[C@H](n2c(=O)n(C)c3nnc4ccc(-c5ccc([C@@H](C)OCCN6CCC7(CC6)CC7)nc5)cc4c32)C1 [Example 164, 8-(6-((R)-1-(2-(6-azaspiro[2.5]octan-6-yl)ethoxy)ethyl)pyridin-3-yl)-1-(trans-3-methoxycyclobutyl)-3-methyl-1H-imidazo[4,5-c]cinnolin-2(3H)-one]",2.2 nM
